Experimental data from ChEMBL document CHEMBL4339235, “Guitarrins A-E and Aluminumguitarrin A: 5-Azaindoles from the Northwestern Pacific Marine Sponge Guitarra fimbriata” (J Nat Prod, 2019).

Test: Inhibition of Cobetia marina ALP using pNPP as substrate; call rule not given here

Structure (SMILES) | IC50 (read-out: IC50) | IC50
O=C(O)c1cc2[nH]ccc2c(CO)n1 | 2 µM | –
O=C(O)CCCc1nccc2[nH]ccc12 | – | Not Active
O=C(O)c1nc(CO)c2cc[nH]c2c1O | 100 µM | –
OCc1nccc2[nH]ccc12 | – | Not Active
O=C(O)c1nccc2[nH]ccc12 | – | Not Active
